Source: BindingDB's records for doi:10.1007/s00044-011-9594-4 (n/a, 2012)

molecular target: Telomerase reverse transcriptase (Homo sapiens, UniProt O14746); test: Inhibition of telomerase (unknown origin)
Sequence (O14746 whole entry): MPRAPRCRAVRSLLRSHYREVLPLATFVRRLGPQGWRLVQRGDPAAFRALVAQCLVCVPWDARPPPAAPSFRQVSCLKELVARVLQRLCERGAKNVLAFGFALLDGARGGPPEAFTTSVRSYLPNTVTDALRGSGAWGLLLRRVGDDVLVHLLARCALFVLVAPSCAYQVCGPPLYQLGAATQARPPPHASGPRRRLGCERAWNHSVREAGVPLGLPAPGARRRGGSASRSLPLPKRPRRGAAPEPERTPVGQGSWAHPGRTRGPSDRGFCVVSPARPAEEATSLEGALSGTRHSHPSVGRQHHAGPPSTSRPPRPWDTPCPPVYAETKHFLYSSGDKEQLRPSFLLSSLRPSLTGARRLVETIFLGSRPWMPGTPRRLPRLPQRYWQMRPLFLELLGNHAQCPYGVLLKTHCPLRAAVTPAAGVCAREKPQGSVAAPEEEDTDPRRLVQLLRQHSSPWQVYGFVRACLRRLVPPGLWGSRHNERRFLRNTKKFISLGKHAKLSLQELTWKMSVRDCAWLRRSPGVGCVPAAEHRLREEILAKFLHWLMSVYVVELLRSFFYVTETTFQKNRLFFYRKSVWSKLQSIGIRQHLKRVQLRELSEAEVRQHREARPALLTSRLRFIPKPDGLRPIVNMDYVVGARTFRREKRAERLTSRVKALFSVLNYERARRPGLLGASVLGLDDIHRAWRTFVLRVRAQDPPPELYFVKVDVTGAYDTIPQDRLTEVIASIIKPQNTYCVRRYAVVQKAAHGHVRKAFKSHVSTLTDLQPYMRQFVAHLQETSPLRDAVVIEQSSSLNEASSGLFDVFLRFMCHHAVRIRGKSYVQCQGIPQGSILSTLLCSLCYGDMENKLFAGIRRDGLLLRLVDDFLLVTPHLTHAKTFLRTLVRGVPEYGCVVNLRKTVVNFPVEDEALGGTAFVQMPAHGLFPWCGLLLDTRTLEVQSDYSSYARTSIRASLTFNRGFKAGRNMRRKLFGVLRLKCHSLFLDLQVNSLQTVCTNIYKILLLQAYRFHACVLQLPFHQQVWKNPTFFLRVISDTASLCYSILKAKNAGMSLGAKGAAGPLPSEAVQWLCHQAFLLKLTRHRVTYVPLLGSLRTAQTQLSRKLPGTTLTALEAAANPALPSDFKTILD

`CN(C)CCCNCc1ccc2nc3ccc4cc5cc(CNCCCN(C)C)ccc5nc4c3cc2c1` and `CSc1nc(Nc2ccc3nc(C)cc(N(C)C)c3c2)nc(Nc2ccc3nc(C)cc(N(C)C)c3c2)n1` are within 1.5-fold of each other in IC50: 28.2 nM for the first, 40.8 nM for the second.

For `CC1=C2NC(=C3CSC(=N3)c3coc(n3)-c3coc(n3)-c3coc(n3)-c3coc(n3)-c3coc(n3)-c3nc2oc3C)O1` [telomestatin], the IC50 was 5.01 nM.
